Source: patent publication US10759785B2, “Compounds” (ENTERPRISE THERAPEUTICS LIMITED, priority 2016, dated 2020)

Columns and labels:
ENaC [1] = target: T1, ENaC (Homo sapiens, UniProt P37088+P51168+P51170); details: cited from earlier work
T1 construct: Human bronchial epithelial cells (HBECs) (Lonza, UK) were cultured; host or cells: primary human bronchial epithelial cells (HBECs) differentiated at an air-liquid interface
T1 sequence (P37088 1-669): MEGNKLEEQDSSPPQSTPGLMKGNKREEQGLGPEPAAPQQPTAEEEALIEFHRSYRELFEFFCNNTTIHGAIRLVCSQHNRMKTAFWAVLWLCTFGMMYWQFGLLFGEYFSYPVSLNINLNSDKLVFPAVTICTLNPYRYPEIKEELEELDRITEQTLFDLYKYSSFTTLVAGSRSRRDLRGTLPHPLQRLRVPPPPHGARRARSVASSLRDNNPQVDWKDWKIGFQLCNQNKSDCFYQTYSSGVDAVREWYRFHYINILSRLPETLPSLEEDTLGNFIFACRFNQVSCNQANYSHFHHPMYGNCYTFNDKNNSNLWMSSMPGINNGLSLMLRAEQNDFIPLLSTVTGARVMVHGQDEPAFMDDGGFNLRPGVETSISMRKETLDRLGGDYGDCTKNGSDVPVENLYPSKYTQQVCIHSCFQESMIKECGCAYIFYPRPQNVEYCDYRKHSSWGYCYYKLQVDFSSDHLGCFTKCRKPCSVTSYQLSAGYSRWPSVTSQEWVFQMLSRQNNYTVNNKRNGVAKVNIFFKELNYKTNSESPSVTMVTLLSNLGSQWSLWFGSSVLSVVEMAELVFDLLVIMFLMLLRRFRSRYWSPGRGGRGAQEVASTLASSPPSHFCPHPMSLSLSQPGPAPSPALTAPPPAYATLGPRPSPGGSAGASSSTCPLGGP
T1 sequence (P51168 1-640): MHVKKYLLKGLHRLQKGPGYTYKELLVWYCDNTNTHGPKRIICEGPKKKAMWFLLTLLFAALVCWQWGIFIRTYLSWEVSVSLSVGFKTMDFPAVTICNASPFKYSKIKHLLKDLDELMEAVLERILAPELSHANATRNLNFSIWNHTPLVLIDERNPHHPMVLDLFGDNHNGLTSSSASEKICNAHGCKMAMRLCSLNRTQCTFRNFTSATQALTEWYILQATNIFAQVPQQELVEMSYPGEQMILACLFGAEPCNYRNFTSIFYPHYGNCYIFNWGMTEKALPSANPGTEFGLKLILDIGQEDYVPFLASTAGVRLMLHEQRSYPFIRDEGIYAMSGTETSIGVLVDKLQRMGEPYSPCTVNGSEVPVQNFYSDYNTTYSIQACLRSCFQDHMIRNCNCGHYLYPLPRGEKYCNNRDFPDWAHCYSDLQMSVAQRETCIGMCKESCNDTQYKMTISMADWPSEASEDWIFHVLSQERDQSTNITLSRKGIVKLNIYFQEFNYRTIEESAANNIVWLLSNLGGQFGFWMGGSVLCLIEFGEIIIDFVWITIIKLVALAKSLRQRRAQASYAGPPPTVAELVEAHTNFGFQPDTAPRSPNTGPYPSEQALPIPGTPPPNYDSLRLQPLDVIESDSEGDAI
T1 sequence (P51170 1-649): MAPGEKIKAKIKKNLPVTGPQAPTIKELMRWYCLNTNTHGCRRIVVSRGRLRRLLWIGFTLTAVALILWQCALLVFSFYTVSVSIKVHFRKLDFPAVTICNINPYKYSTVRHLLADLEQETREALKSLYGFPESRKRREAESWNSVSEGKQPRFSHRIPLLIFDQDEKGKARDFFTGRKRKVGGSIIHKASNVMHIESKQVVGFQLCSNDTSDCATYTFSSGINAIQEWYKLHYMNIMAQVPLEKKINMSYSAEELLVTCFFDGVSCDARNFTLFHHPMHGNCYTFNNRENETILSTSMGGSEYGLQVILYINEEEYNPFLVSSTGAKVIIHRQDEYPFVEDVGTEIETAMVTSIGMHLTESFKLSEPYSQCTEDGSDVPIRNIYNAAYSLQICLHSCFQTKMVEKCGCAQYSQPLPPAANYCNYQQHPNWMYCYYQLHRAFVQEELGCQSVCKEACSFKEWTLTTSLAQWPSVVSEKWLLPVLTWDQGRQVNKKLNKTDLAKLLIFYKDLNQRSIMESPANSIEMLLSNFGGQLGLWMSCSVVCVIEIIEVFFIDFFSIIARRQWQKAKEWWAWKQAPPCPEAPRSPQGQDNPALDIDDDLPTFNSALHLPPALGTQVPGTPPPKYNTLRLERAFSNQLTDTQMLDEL

[2] = Microsomal stability (human microsomes); format: in vitro ADME; details: pH 7.4, 1 μM test compound, 0.5 mg/mL protein, 1 mM NADPH, 37° C., read-out: Averages. Mic Half Life Human
Protocol: (§1) Example 28—Microsomal Stability
(§2) Microsomes (rat and human) were obtained from Bioreclamation. Test compound stock solutions in DMSO (10 mM) were diluted with DMSO to 2 mM. Further dilution was completed to achieve a 100 μM stock (final concentrations; 91.5% Acetonitrile: 8.5% DMSO). Final test compound concentration in incubation was 1 μM (<0.1% DMSO). The following probe substrates were used: verapamil, propranolol, metoprolol and phenacetin (rat) at a final incubation concentration of 1 μM. Assay buffer—Solution 1: 17.4 g potassium phosphate dibasic anhydrous (K2HPO4, 0.1 M) dissolved in 1 L deionised water. Solution 2: 13.6 g potassium phosphate monobasic anhydrous (KH2PO4, 0.1 M) dissolved in 1 L deionised water. Potassium phosphate solutions 1 and 2 were combined to form a pH 7.42 solution at 37° C. pH 7.4 with 2 mM magnesium chloride. NADPH (10 mM)—diluted in deionised water. Frozen microsomes were thawed at 37° C. Microsomes were diluted in assay buffer to achieve a final protein concentration of 0.5 mg/mL and 1 mM NADPH. The following procedure was completed on a Perkin Elmer Janus robotic platform in 96 well format: The microsomal incubation plate was transferred to a heater shaker at 300 rpm and solution heated to 37° C. for 10 min pre-warm. A no co-factor control at 0 and 45 min and one replicates of each test compound was included in every assay. Microsomes were incubated at 37° C., on a shaker set at 300 rpm throughout the assay. At each timepoint (0, 5, 15, 30, 45 min) 50 μL of sample was removed from the 96-well and added to 200 μL of quench solution (acetonitrile containing 0.1% formic acid and imipramine/labetalol, 200 nM). Samples were diluted 1:1 with water using the Janus Robot and analysed by LC-MS/MS.

[3] = Microsomal stability (rat microsomes); format: in vitro ADME; details: pH 7.4, 1 μM test compound, 0.5 mg/mL protein, 1 mM NADPH, 37° C., read-out: Averages. Mic Half Life Rat
Protocol: as §1, §2

[4] = Hepatic stability (human cryopreserved hepatocytes); format: in vitro ADME; details: cryopreserved hepatocytes, pH 7.4, 1 μM test compound, 1×10^6 cells/mL, 37° C., read-out: Averages. Hep Half Life Human
Protocol: (§3) Example 29—Hepatic Stability
(§4) Cryopreserved hepatocytes (rat and human) were obtained from Bioreclamation. Test compound stock solutions in DMSO (10 mM) were diluted with DMSO to 4 mM. Further dilution was completed to achieve a 100 μM stock (5 μL of 4 mM in 195 μL of 50:50 DMSO:hepatocyte buffer). Final test compound concentration in incubation was 1 μM. The following probe substrates were used: testosterone and carbamazepine at a final incubation concentration of 1 μM. Hepatocyte buffer was prepared (Williams E media containing phenol red and Glutamax™, 15 mM HEPES, warmed to 37° C., pH7.4 with NaOH). Cells were removed from liquid nitrogen, thawed in a waterbath, decanted into 50 mL of pre-warmed Cryopreserved Hepatocyte Recovery Media (LifeTechnologies) and centrifuged. Supernatant fraction was removed, cells were re-suspended in hepatocyte buffer and counted by trypan blue exclusion. Cell viability of >80% was required for all assays. Cells were re-suspended to 1×10^6/mL and 198 μL cell suspension added to each 96-well. 2 μL of 100 μM compound stock solution was added to relevant wells to initiate the incubation. A no cell control and two replicates of each test compound was included in every assay. Cells were incubated at 37° C., on a shaker set at 300 rpm. At each timepoint (0, 15, 30, 45, 60, 90 min) 20 μL of sample was removed from the 96-well and added to 80 μL of quench solution (acetonitrile containing 0.1% formic acid and imipramine/labetalol, 200 nM). Samples were diluted 1:1 with water using the Janus Robot and analysed by LC-MS/MS.

[5] = Hepatic stability (rat cryopreserved hepatocytes); format: in vitro ADME; details: pH 7.4, 1 μM test compound, 1×10^6 cells/mL, 37° C., read-out: Averages. Hep Half Life Rat
Protocol: as §3, §4

ENaC [6] = target: T1, ENaC; assay: Short circuit current assay to determine ENaC blocker potency in human bronchial epithelial cells; format: cell-based; details: 50% inhibition of total amiloride-sensitive ISC, HBECs, apical addition; read-out: Averages. ENaC Ic50 μm Avg
Protocol: Example 27—Short Circuit Current Assay to Determine ENaC Blocker Potency in Human Bronchial Epithelial Cells
Human bronchial epithelial cells (HBECs) (Lonza, UK) were cultured using a modification of the method described by Coote et al, (2008). Cells were seeded into plastic T-75 flasks and grown in Bronchial Epithelial Cell Growth Medium (BEGM) (Lonza, UK) supplemented with bovine pituitary extract (52 ng/mL), hydrocortisone (0.5 μg/mL), human recombinant Epidermal Growth Factor (0.5 ng/mL), epinephrine (0.5 ng/mL), transferrin (10 ng/mL), insulin (5 ng/mL), retinoic acid (0.1 ng/mL), triiodothyronine (6.5 ng/mL), gentamycin (50 μg/mL) and amphotericin-B (50 ng/mL). Medium was changed every 48 hours until cells were 90% confluent. Cells were then passaged and seeded (8.25×10^5 cells/insert) onto polycarbonate Snapwell™ inserts (Costar, UK) in differentiation media containing 50% DMEM in BGEM with the same supplements as above but without triiodothyronine and a final retinoic acid concentration of 50 nM (all-trans retinoic acid; Sigma-Aldrich, UK). Cells were maintained submerged for the first 7 days in culture after which time they were exposed to an apical air interface for the remainder of the culture period. From the first day of establishment of an ALI, HBEC were fed with a DMEM:HAMS F-12 (1:1) media containing 2% Ultroser G (Pall BioSepra, France) with gentamycin (50 μg/mL) and amphotericin B (50 ng/mL). Cells were used for short-circuit current assay between days 14-21 after the establishment of the ALI. At all stages of culture, cells were maintained at 37′C in 5% CO2 in an air incubator.
Short-Circuit Current (ISC) Measurements
Snapwell inserts were mounted in Costar Vertical Diffusion Chambers (Costar, UK) and were bathed with continuously gassed Ringer solution (5% CO2 in O2; pH 7.4) maintained at 37° C. containing (in mM): 120 NaCl, 25 NaHCO3, 3.3 KH2PO4, 0.8 K2HPO4, 1.2 CaCl2, 1.2 MgCl2 and 10 glucose. The solution osmolarity was always between 280-300 mOsm/kg H2O for all physiological salt solutions used. Cells were voltage clamped to 0 mV (model EVC4000, WPI). Transepithelial resistance (RT) was measured by applying a 2 mV pulse at 30 s intervals and calculating RT by Ohm's law. Data were recorded using a PowerLab workstation (ADInstruments, UK).
ENaC blocker compounds were added to the apical chamber from a 1000-fold stock solution (prepared in DMSO) to achieve a cumulative concentration response in terms of the inhibition of the basal ISC. At the completion of the concentration response, a supra-maximal concentration of amiloride (10 μM) was added. The concentration of test compound that induced a 50% inhibition of the total amiloride-sensitive ISC (IC50) was calculated using GraphPad Prism v6.05.

In the case of `N=C(N)NC(=O)c1nc(Cl)c(N)nc1N` [Amiloride], the “Effect on MCC” value (ENaC [1]; healthy controls and patients with CF) is given as “increase MCC” and the “Effect on clinical endpoints” value (ENaC [1]; inhaled amiloride) is given as “lack of a robust effect”.
Work on `CCn1c(CNC(=O)c2nc(Br)cnc2N)[n+](C)c2ccc(OC)cc21.[I-]` [Example 1, 2-{[(3-amino-6-bromopyrazin-2-yl)formamido]methyl}-1-ethyl-6-methoxy-3-methyl-1H-1,3-benzodiazol-3-ium iodide] yielded a half-life at 1 μM [2] of 12 min, a half-life at 1 μM [3] of 3 min and a half-life at 1 μM [4] of 44 min. The half-life at 1 μM [5] was 6 min.
For `CCn1c(CNC(=O)c2nc(Br)cnc2N)[n+](CC)c2ccc(C(=O)O)cc21` [Example 16, 2-{[(3-amino-6-bromopyrazin-2-yl)formamido]methyl}-6-carboxy-1,3-diethyl-1H-1,3-benzodiazol-3-ium bromide], the IC50 (ENaC [6]) was 14 nM.
